{"source": "patent US4276297A", "about": "“Pyridylaminotriazole therapeutic agents” (Pfizer Inc., priority 1979, dated 1981)", "key": {"gastric acid secretion": {"test_system": "gastric acid secretion", "assay": "Inhibition of pentagastrin-induced gastric acid secretion in fasted Heidenhain pouch dogs", "type": "in vivo", "conditions": "intravenous; for inhibition in vivo at 1 mg/kg / inhibition in vivo at 5 mg/kg / inhibition in vivo at 10 mg/kg: Canis lupus familiaris, 1.5 h, 90 minutes after start of pentagastrin infusion, lowest acid output after drug vs mean acid output immediately prior, read-out: Acid Antisecretory Activity (% Inhibition)", "procedure": "The activity of the compounds of the present invention, as anti-ulcer agents, is determined by their ability to pass at least one of the following two standard biological and/or pharmacological tests, viz., (1) measuring their ability to antagonise those particular actions of histamine which are not blocked by an antihistamine such as mepyramine, i.e., a measure of their ability to block certain histamine H2 -receptor sites; and (2) measuring their ability to inhibit gastric acid secretion in the stomachs of Heidenhain pouch dogs that had previously been treated with pentagastrin in order to stimulate the secretion of said acid (in their stomachs) for these particular purposes.\nThe following 3-amino-5-(4-pyridyl)-1,2,4-triazole final products of Examples I-V, VII-XII, XIV-XVI, XVIII-XX, XXII-XXIII, XXV-XXVI, XXVIII and XXXII, respectively, were tested for antiulcer activity in terms of their ability to inhibit gastric acid secretion in groups of fasted Heidenhain pouch dogs. No anesthetic was used in this study. The animals were first administered pentagastrin in order to stimulate acid output in their stomachs by the continuous infusion of said drug into a superified leg vein at doses earlier determined to stimulate near maximal acid output from the gastric pouch. Gastric juice was then collected at 30-minute intervals following the start of a pentagastrin infusion amd measured to the nearest one-tenth of a […] (0.1 ml.). Ten collections were taken for each dog during an experiment. Acid concentration was then determined by titrating 1.0 ml. of gastric juice to a pH value of pH 7.4 with 0.1 N aqueous sodium hydroxide, using an Autoburette and a glass electrode pH meter (Radiometer) for these purposes. The animals were then administered the test compounds at 10, 5.0 and 1.0 mg./kg., respectively, or the control vehicle alone, via the intravenous route of administration,at 90 minutes following the start of the pentagastrin infusion. Gastric antisecretory effects were thereafter calculated by comparing the lowest acid output after drug administration with the mean acid output immediately prior to same and the results obtained in this manner are reported in the following table, where the entries given for each individual compound are expressed in terms of percent inhibition (%) at the dose level indicated: […]"}, "[1]": {"assay": "Signs of toxic side effects in Heidenhain pouch dogs after intravenous dosing", "type": "in vivo", "conditions": "1.0 mg./kg. to 10 mg./kg.", "from_the_text": "As previously indicated, the 3-amino-5-(4-pyridyl)-1,2,4-triazole compounds of this invention are all readily adapted to therapeutic use as histamine H2 -receptor inhibitors for the control of peptic ulcers, especially in view of their ability to inhibit the secretion of gastric acid in the body to a statistically significant degree. […] The other compounds of this invention also cause similar results. Furthermore, all the herein described compounds of this invention can be administered orally, for the present purposes at hand, without causing any significant untoward pharmacological side reactions to occur in the subject to whom they are so administered. In general, these compounds are ordinarily administered at dosage levels ranging from about 0.5 mg. to about 50 mg. per kg. of body weight per day, although variations will necessarily occur depending upon the condition and individual response of the subject being treated and the particular type of pharmaceutical formulation chosen."}}}
{"smiles": "CCCNc1cc(-c2nc(N)n[nH]2)ccn1", "note": "[Example I, 3-amino-5-{2-[N-mono(n-propyl)amino]-4-pyridyl}-1,2,4-triazole]", "values": [{"measurement": "inhibition in vivo at 1 mg/kg", "setting": "gastric acid secretion", "result": 33, "unit": "%"}, {"measurement": "inhibition in vivo at 5 mg/kg", "setting": "gastric acid secretion", "result": 64, "unit": "%"}]}
{"smiles": "CCCCCCNc1cc(-c2nc(N)n[nH]2)ccn1", "note": "[Example II, 3-amino-5-{2-[N-mono(n-hexyl)amino]-4-pyridyl}-1,2,4-triazole]", "values": [{"measurement": "inhibition in vivo at 1 mg/kg", "setting": "gastric acid secretion", "result": 0, "unit": "%"}, {"measurement": "inhibition in vivo at 10 mg/kg", "setting": "gastric acid secretion", "result": 40, "unit": "%"}]}
{"smiles": "CCCCCCCCCCNc1cc(-c2nc(N)n[nH]2)ccn1", "note": "[Example III, 3-amino-5-{2-[N-mono(n-decyl)amino]-4-pyridyl}-1,2,4-triazole]", "values": [{"measurement": "inhibition in vivo at 10 mg/kg", "setting": "gastric acid secretion", "result": 14, "unit": "%"}]}
{"smiles": "C=CCNc1cc(-c2nc(N)n[nH]2)ccn1", "note": "[Example IV]", "values": [{"measurement": "inhibition in vivo at 1 mg/kg", "setting": "gastric acid secretion", "result": 31, "unit": "%"}]}
{"smiles": "CCN(C)c1cc(-c2nc(N)n[nH]2)ccn1", "note": "[Example IX, 3-amino-5-[2-(N-methyl-N-ethylamino)-4-pyridyl]-1,2,4-triazole]", "values": [{"measurement": "inhibition in vivo at 1 mg/kg", "setting": "gastric acid secretion", "result": 53, "unit": "%"}]}
{"smiles": "Nc1n[nH]c(-c2ccnc(NCCO)c2)n1", "note": "[Example V, 3-amino-5-{2-[N-mono(β-hydroxyethyl)amino]-4-pyridyl}-1,a,4-triazole]", "values": [{"measurement": "inhibition in vivo at 1 mg/kg", "setting": "gastric acid secretion", "result": 23, "unit": "%"}, {"measurement": "inhibition in vivo at 10 mg/kg", "setting": "gastric acid secretion", "result": 34, "unit": "%"}]}
{"smiles": "COCCNc1cc(-c2nc(N)n[nH]2)ccn1", "note": "[Example VII, 3-amino-5-{2-[N-mono(β-methoxyethyl)amino]-4-pyridyl}-1,2,4-triazole]", "values": [{"measurement": "inhibition in vivo at 1 mg/kg", "setting": "gastric acid secretion", "result": 11, "unit": "%"}]}
{"smiles": "CN(C)c1cc(-c2nc(N)n[nH]2)ccn1", "note": "[Example VIII, 3-amino-5-[2-(N,N-dimethylamino)-4-pyridyl]-1,2,4-triazole]", "values": [{"measurement": "inhibition in vivo at 1 mg/kg", "setting": "gastric acid secretion", "result": 48, "unit": "%"}, {"measurement": "inhibition in vivo at 5 mg/kg", "setting": "gastric acid secretion", "result": 80, "unit": "%"}, {"measurement": "inhibition in vivo at 10 mg/kg", "setting": "gastric acid secretion", "result": 96, "unit": "%"}]}
{"smiles": "CCN(CC)c1cc(-c2nc(N)n[nH]2)ccn1", "note": "[Example X, 3-amino-5-[2-(N,N-diethylamino)-4-pyridyl]-1,2,4-triazole]", "values": [{"measurement": "inhibition in vivo at 5 mg/kg", "setting": "gastric acid secretion", "result": 68, "unit": "%"}]}
{"smiles": "CCNc1cc(-c2nc(NCC)n[nH]2)ccn1", "note": "[Example XI, 3-(monoethylamino)-5-[2-(N-monoethylamino)-4-pyridyl]-1,2,4-triazole]", "values": [{"measurement": "inhibition in vivo at 1 mg/kg", "setting": "gastric acid secretion", "result": 38, "unit": "%"}]}
{"smiles": "Nc1n[nH]c(-c2ccnc(NCCc3ccccc3)c2)n1", "note": "[Example XII, 3-amino-5-{2-[N-mono(β-phenylethyl)amino]-4-pyridyl}-1,2,4-triazole]", "values": [{"measurement": "inhibition in vivo at 1 mg/kg", "setting": "gastric acid secretion", "result": 18, "unit": "%"}, {"measurement": "inhibition in vivo at 10 mg/kg", "setting": "gastric acid secretion", "result": 50, "unit": "%"}]}
{"smiles": "Nc1n[nH]c(-c2ccnc(NCc3ccccc3)c2)n1", "note": "[Example XIV, 3-amino-5-[2-(N-monobenzylamino)-4-pyridyl]-1,2,4-triazole]", "values": [{"measurement": "inhibition in vivo at 1 mg/kg", "setting": "gastric acid secretion", "result": 21, "unit": "%"}, {"measurement": "inhibition in vivo at 10 mg/kg", "setting": "gastric acid secretion", "result": 72, "unit": "%"}]}
{"smiles": "CNc1cc(-c2nc(N)n[nH]2)ccn1", "note": "[Example XIX, 3-amino-5-[2-(N-monomethylamino)-4-pyridyl]-1,2,4-triazole]", "values": [{"measurement": "inhibition in vivo at 1 mg/kg", "setting": "gastric acid secretion", "result": 50, "unit": "%"}]}
{"smiles": "Nc1n[nH]c(-c2ccnc(NCc3ccc(Cl)cc3)c2)n1", "note": "[Example XV, 3-amino-5-{2-[N-mono(p-chlorobenzyl)amino]-4-pyridyl}-1,2,4-triazole]", "values": [{"measurement": "inhibition in vivo at 1 mg/kg", "setting": "gastric acid secretion", "result": 21, "unit": "%"}, {"measurement": "inhibition in vivo at 10 mg/kg", "setting": "gastric acid secretion", "result": 62, "unit": "%"}]}
{"smiles": "Nc1cc(-c2nc(N)n[nH]2)ccn1", "note": "[Example XVIII, 3-amino-5-(2-aminopyridyl)-1,2,4-triazole monohydrate]", "values": [{"measurement": "inhibition in vivo at 1 mg/kg", "setting": "gastric acid secretion", "result": 30, "unit": "%"}, {"measurement": "inhibition in vivo at 5 mg/kg", "setting": "gastric acid secretion", "result": 86, "unit": "%"}, {"measurement": "inhibition in vivo at 10 mg/kg", "setting": "gastric acid secretion", "result": 94, "unit": "%"}]}
{"smiles": "Cc1ccc(CNc2cc(-c3nc(N)n[nH]3)ccn2)cc1", "note": "[Example XVI]", "values": [{"measurement": "inhibition in vivo at 5 mg/kg", "setting": "gastric acid secretion", "result": 33, "unit": "%"}]}
{"smiles": "CCNc1cc(-c2nc(N)n[nH]2)ccn1", "note": "[Example XX, 3-amino-5-[2-(N-monoethylamino)-4-pyridyl]-1,2,4-triazole]", "values": [{"measurement": "inhibition in vivo at 1 mg/kg", "setting": "gastric acid secretion", "result": 51, "unit": "%"}, {"measurement": "inhibition in vivo at 5 mg/kg", "setting": "gastric acid secretion", "result": 89, "unit": "%"}, {"measurement": "inhibition in vivo at 10 mg/kg", "setting": "gastric acid secretion", "result": 93, "unit": "%"}, {"measurement": "inhibit the pentagastrin-induced secretion of gastric acid (in words)", "setting": "gastric acid secretion; 1.0 mg./kg. to 10 mg./kg., Heidenhain pouch dogs", "result": "consistently inhibit the pentagastrin-induced secretion of gastric acid from stomachs of Heidenhain pouch dogs to a significantly high degree"}, {"measurement": "signs of toxic side effects", "setting": "[1]", "result": "without showing any substantial signs of toxic side effects"}]}
{"smiles": "CCCCNc1cc(-c2nc(N)n[nH]2)ccn1", "note": "[Example XXII, 3-amino-5-{2-[N-mono(n-butyl)amino]-4-pyridyl}-1,2,4-triazole]", "values": [{"measurement": "inhibition in vivo at 1 mg/kg", "setting": "gastric acid secretion", "result": 29, "unit": "%"}]}
{"smiles": "CC(C)Nc1cc(-c2nc(N)n[nH]2)ccn1", "note": "[Example XXIII, 3-amino-5-[2-(N-monoisopropylamino)-4-pyridyl]-1,2,4-triazole]", "values": [{"measurement": "inhibition in vivo at 1 mg/kg", "setting": "gastric acid secretion", "result": 35, "unit": "%"}, {"measurement": "inhibition in vivo at 5 mg/kg", "setting": "gastric acid secretion", "result": 52, "unit": "%"}]}
{"smiles": "Nc1n[nH]c(-c2ccnc(NCC(F)(F)F)c2)n1", "note": "[Example XXV, 3-amino-5-{2-[N-mono(2,2,2-trifluoroethyl)amino]-4-pyridyl}-1,2,4-triazole]", "values": [{"measurement": "inhibition in vivo at 1 mg/kg", "setting": "gastric acid secretion", "result": 10, "unit": "%"}]}
{"smiles": "CCNc1cc(-c2nc(NC)n[nH]2)ccn1", "note": "[Example XXVI, 3-(N-monomethylamino)-5-[2-(N-monoethylamino)-4-pyridyl]-1,2,4-triazole]", "values": [{"measurement": "inhibition in vivo at 1 mg/kg", "setting": "gastric acid secretion", "result": 32, "unit": "%"}, {"measurement": "inhibition in vivo at 5 mg/kg", "setting": "gastric acid secretion", "result": 64, "unit": "%"}]}
{"smiles": "Cc1ccc(CNc2cc(-c3nc(N)n[nH]3)ccn2)cc1C", "note": "[Example XXVIII, 3-amino-5-{2-[N-mono(3',4'-dimethylbenzyl)amino]-4-pyridyl}-1,2,4-triazole]", "values": [{"measurement": "inhibition in vivo at 5 mg/kg", "setting": "gastric acid secretion", "result": 49, "unit": "%"}]}
{"smiles": "CN(Cc1ccccc1)c1cc(-c2nc(N)n[nH]2)ccn1", "note": "[Example XXXII, 3-amino-5-[2-(N-methyl-N-benzylamino)-4-pyridyl]-1,2,4-triazole]", "values": [{"measurement": "inhibition in vivo at 10 mg/kg", "setting": "gastric acid secretion", "result": 25, "unit": "%"}]}
